From ChEMBL document CHEMBL1201862, “PubChem BioAssay data set” (2004) come the findings set out here.

Values joined by “and” are separate entries in the source; they are usually repeats but may differ in a detail not shown here. Equal entries are not always repeated. Active and inactive are the calls of the source. Bounds are passed on as bounds.

The target in assay [1] is Glucose-6-phosphate 1-dehydrogenase (Homo sapiens, UniProt P11413). Nature of the assay: human G6PD enzyme inhibitors, dose response, selectivity assay for P. falciparum G6PD inhibitor project, biochemical, fluorescence (AID 504792). The format is functional.
The target of assay [2] is Tyrosine-protein phosphatase non-receptor type 11 (Homo sapiens, UniProt Q06124). Nature of the assay: SHP2 phosphatase inhibition, dose response, selectivity assay for STEP inhibitor project, biochemical (AID 602367). The format is functional. The following applies: read-out: IC50_Mean.
Assay [3] deals with Tyrosine-protein phosphatase non-receptor type 5 (Homo sapiens, UniProt P54829). As to the kind of experiment: STEP phosphatase inhibitors, confirmation, biochemical, fluorescence intensity, uHTS hits (AID 602372). In kind it is functional. The following applies: read-out: IC50_Mean.
Assay [4] addresses Dual specificity protein phosphatase 3 (Homo sapiens, UniProt P51452). As to the kind of experiment: VHR phosphatase inhibition, dose response, selectivity assay for STEP inhibitor project, biochemical (AID 602374). In kind it is functional. As to conditions: read-out: IC50_Mean.
Assay [5] can be described thus: microbe, parasite or virus in culture. The format is functional. The following applies: Mycobacterium tuberculosis.
A short description of assay [6]: Fluorescence-based cell-based high throughput dose response assay for inhibitors of the interaction of nucleotide-binding oligomerization domain containing 2 (NOD2) and the receptor-interacting serine-threonine kinase 2 (RIPK2). In kind it is functional. As to conditions: Homo sapiens.
Assay [7] deals with Beta Lactamase (Pseudomonas aeruginosa, UniProt Q932Y6). Nature of the assay: beta-lactamase reporter inhibitor potency, dose response, artefact control for NOD2-RIPK2 interaction inhibitor project, BLA reporter cells, FRET fluorescence (AID 651552). The format is functional, cell-based.
In assay [8] the target is Adenosylmethionine-8-amino-7-oxononanoate aminotransferase (Mycobacterium tuberculosis, UniProt P9WQ81). As to the kind of experiment: Mycobacterium tuberculosis BioA enzyme inhibitor Measured in Biochemical System Using Plate Reader - 2163-02_Inhibitor_Dose_CherryPick_Activity. The format is functional, Mycobacterium tuberculosis UT205.
Assay [9] in a line: ARNT/TACC3 interaction disruptors, potency, confirmation, biochemical, AlphaScreen, cherry-picked samples (AID 651703).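 Also: His-tagged ARNT PAS-B domain paired with GST-TACC3 E629A dimer coactivator fragment; potency of inhibitors that break up the complex and lower AlphaScreen signal.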 In kind it is functional, Homo sapiens. In general terms: Bead proximity is the source of the signal in Alpha formats.
Assay [10] addresses Hepatocyte nuclear factor 4-alpha (Homo sapiens, UniProt P41235). In kind it is functional, cell-based.
The target in assay [11] is Peroxisome proliferator-activated receptor gamma/Nuclear receptor coactivator 1 (Homo sapiens, UniProt P37231). As to the kind of experiment: TR-FRET dose response biochemical High Throughput Screening assay for agonists of the steroid receptor coactivator 1 (SRC-1) recruitment by the peroxisome proliferator-activated receptor gamma (PPAR gamma): non-selective agonists. [Related pubchem assays (depositor defined):AID1300, AID1808, AID504735, AID631]. In kind it is protein assay. On the technique in general: In TR-FRET formats the signal depends on donor and acceptor labels being close together.

Assay [12] addresses Peroxisome proliferator-activated receptor gamma/Nuclear receptor coactivator 3 (Homo sapiens, UniProt P37231). Nature of the assay: TR-FRET dose response biochemical High Throughput Screening assay for agonists of the steroid receptor coactivator 3 (SRC-3) recruitment by the peroxisome proliferator-activated receptor gamma (PPAR gamma): non-selective agonists. [Related pubchem assays: 1301 (Confirmation screen.), 1048 (Primary screen.)]. In kind it is functional.

Assay [13] deals with Peroxisome proliferator-activated receptor gamma/Nuclear receptor coactivator 2 (Homo sapiens, UniProt P37231). As to the kind of experiment: TR-FRET dose response biochemical High Throughput Screening assay for agonists of the steroid receptor coactivator 2 (SRC-2) recruitment by the peroxisome proliferator-activated receptor gamma (PPAR gamma): non-selective agonists. [Related pubchem assays: 1297, 1032 ]. The format is functional.

Assay [14] can be described thus: Counterscreen for inhibitors of Trypanosoma brucei methionyl tRNA synthetase (MetRS): Luminescence-based cell-based high throughput dose response assay to identify compounds that are cytotoxic to Jurkat human T lymphocyte cells. The format is functional.
In assay [15] the test system is Vero. As to the kind of experiment: Vero cell cytotoxicity, cytotoxicity control for flavivirus capping enzyme inhibitors (AID 588742). The format is functional. As to conditions: Chlorocebus sabaeus.
In assay [16] the target is Dual specificity tyrosine-phosphorylation-regulated kinase 1A (Rattus norvegicus, UniProt Q63470). In kind it is biochemical, Homo sapiens.
The target in assay [17] is T1, Polyadenylate-binding protein 1 (Homo sapiens, UniProt P11940). Nature of the assay: PABP1 MLLE–PAM2 interaction inhibitors, dose response, miRNA deadenylation inhibitor project, biochemical, fluorescence polarization, Cy5-PAM2 peptide, secondary (AID 602260). The format is functional. As to conditions: read-out: IC50_Mean.
Assay [18] has as its target T1, Polyadenylate-binding protein 1. As to the kind of experiment: PABP1 MLLE–PAM2 binding inhibitor potency, dose response, biochemical, fluorescence polarization, FITC-PAM2 peptide (AID 602259). As to conditions: read-out: IC50_Mean. The format is functional.
Assay [19] deals with T2, Aurora kinase A (Homo sapiens, UniProt O14965).
T2 sequence (O14965 whole entry): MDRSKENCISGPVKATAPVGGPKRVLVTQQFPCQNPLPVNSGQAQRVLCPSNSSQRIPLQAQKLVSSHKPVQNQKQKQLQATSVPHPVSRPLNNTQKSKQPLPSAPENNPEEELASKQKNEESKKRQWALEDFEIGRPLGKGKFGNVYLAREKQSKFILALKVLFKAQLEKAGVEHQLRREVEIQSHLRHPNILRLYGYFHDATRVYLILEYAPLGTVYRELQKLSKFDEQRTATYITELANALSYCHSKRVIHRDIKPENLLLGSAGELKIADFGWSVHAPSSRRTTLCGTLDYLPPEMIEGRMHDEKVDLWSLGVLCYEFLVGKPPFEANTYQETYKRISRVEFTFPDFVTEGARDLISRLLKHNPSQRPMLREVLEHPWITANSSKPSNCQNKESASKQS
In kind it is functional.

Assay [20] addresses Vascular endothelial growth factor receptor 2 (Homo sapiens, UniProt P35968). The format is functional.
In assay [21] the target is Aurora kinase B (Homo sapiens, UniProt Q96GD4). The format is functional.
Assay [22] deals with Streptococcus sp. 'group A'. Nature of the assay: growth inhibition of control SK(-) GAS strain, dose response, counter-screen for streptokinase expression inhibitor project, luminescence, kanamycin, BacTiterGlo, confirmation (AID 1900). The format is functional, organism-based. (Counterscreens check selectivity or assay interference.)
The target of assay [23] is T3, Streptokinase A (Streptococcus pyogenes serotype M1, UniProt P10520).
T3 sequence (P10520 whole entry): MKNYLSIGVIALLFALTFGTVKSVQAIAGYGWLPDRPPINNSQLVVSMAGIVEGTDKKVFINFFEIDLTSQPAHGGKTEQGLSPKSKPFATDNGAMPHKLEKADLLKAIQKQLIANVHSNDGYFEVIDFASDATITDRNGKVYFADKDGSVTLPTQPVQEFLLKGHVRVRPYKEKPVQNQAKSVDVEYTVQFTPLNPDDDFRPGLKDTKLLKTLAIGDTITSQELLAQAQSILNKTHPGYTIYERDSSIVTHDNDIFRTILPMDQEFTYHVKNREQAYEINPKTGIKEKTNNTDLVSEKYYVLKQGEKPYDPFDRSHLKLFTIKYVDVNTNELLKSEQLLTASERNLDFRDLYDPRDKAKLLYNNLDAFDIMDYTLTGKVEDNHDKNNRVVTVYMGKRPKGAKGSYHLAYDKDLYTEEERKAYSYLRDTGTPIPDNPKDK
Nature of the assay: S. pyogenes streptokinase expression inhibitors, potency, dose response, plasminogen activation absorbance, OD405 (AID 1914).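 Also: secreted streptokinase activity via plasminogen activation per viability signal from cell pellet.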 The format is functional, Streptococcus pyogenes M1 GAS.

Assay [24] has as its target Induced myeloid leukemia cell differentiation protein Mcl-1 (Homo sapiens, UniProt Q07820). The format is functional.
For assay [25], the system named is Streptococcus. As to the kind of experiment: Group A Streptococcus viability loss, dose response, counter-screen for streptokinase expression inhibitor project, luminescence, BacTiterGlo (AID 1915).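 Also: potency for reduction of bacterial viability or growth.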 The format is functional, organism-based.
The target in assay [26] is FAD-linked sulfhydryl oxidase ALR (Homo sapiens, UniProt P55789). Nature of the assay: inhibitors of human ALR sulfhydryl oxidase, dose response, biochemical, H2O2 detection, luminescence, cherry-pick (AID 493248).
Assay [27] has as its system HeLa. As to the kind of experiment: HeLa cell cytotoxicity, dose response, cytotoxicity control for MITF activator project, CellTiter-Glo luminescence, cherry-pick samples (AID 540259). The following applies: Homo sapiens. The format is functional, cell-based.
The target in assay [28] is T4, Fatty acid synthase (Homo sapiens, UniProt P49327). Nature of the assay: FAS thioesterase domain inhibitors, dose response, biochemical, endpoint fluorescence intensity, uHTS hits (AID 624327).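 Also: fluorescence from hydrolysis of an O-methyl fluorescein acyl ester substrate by the enzyme.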 The format is functional.
The target in assay [29] is T4, Fatty acid synthase. Nature of the assay: FAS thioesterase domain inhibitors, dose response, biochemical, kinetic fluorescence intensity (AID 624326).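 Also: rate of fluorescence rise from hydrolysis of a fluorogenic O-methyl fluorescein ester substrate.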 The format is functional.

T1 sequence (P11940 whole entry): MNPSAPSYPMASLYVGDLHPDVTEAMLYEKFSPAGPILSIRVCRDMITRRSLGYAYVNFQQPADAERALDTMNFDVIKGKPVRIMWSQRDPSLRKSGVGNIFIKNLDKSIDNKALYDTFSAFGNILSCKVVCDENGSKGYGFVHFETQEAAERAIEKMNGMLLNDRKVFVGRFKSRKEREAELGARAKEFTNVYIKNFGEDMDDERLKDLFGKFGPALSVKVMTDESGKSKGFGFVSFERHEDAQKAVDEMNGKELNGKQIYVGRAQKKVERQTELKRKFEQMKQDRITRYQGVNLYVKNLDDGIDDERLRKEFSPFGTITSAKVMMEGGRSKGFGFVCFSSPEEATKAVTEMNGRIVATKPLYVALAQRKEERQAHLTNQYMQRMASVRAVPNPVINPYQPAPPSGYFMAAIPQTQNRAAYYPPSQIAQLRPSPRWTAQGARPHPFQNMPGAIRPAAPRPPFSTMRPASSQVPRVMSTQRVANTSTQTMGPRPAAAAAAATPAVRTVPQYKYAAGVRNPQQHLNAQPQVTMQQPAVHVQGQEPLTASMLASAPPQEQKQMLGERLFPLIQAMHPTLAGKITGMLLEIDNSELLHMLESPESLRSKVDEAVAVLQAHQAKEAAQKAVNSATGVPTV
Sequence of Aurora kinase B (Q96GD4 whole entry): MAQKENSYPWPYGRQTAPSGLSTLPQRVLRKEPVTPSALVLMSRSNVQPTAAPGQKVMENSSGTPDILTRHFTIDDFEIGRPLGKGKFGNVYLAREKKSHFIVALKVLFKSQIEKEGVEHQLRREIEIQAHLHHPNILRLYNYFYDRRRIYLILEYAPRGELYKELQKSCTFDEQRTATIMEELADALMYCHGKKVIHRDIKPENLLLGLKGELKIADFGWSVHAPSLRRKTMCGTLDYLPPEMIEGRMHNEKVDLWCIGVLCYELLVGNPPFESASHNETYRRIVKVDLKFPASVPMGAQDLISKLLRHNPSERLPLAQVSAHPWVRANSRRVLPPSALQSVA
Sequence of Adenosylmethionine-8-amino-7-oxononanoate aminotransferase (P9WQ81 whole entry, the tested form may be a part): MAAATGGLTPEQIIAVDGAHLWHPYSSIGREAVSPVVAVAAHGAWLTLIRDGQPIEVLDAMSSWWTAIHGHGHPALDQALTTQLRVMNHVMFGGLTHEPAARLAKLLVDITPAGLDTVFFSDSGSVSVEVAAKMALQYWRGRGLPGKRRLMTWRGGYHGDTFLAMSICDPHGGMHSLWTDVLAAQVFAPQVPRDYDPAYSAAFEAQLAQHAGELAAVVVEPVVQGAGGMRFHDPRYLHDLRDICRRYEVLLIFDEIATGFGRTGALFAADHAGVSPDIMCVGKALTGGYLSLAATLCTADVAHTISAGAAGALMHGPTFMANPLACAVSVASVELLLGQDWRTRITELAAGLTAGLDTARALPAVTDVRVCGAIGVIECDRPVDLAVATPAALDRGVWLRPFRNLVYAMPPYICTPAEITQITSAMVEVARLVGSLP
Sequence of Vascular endothelial growth factor receptor 2 (P35968 whole entry): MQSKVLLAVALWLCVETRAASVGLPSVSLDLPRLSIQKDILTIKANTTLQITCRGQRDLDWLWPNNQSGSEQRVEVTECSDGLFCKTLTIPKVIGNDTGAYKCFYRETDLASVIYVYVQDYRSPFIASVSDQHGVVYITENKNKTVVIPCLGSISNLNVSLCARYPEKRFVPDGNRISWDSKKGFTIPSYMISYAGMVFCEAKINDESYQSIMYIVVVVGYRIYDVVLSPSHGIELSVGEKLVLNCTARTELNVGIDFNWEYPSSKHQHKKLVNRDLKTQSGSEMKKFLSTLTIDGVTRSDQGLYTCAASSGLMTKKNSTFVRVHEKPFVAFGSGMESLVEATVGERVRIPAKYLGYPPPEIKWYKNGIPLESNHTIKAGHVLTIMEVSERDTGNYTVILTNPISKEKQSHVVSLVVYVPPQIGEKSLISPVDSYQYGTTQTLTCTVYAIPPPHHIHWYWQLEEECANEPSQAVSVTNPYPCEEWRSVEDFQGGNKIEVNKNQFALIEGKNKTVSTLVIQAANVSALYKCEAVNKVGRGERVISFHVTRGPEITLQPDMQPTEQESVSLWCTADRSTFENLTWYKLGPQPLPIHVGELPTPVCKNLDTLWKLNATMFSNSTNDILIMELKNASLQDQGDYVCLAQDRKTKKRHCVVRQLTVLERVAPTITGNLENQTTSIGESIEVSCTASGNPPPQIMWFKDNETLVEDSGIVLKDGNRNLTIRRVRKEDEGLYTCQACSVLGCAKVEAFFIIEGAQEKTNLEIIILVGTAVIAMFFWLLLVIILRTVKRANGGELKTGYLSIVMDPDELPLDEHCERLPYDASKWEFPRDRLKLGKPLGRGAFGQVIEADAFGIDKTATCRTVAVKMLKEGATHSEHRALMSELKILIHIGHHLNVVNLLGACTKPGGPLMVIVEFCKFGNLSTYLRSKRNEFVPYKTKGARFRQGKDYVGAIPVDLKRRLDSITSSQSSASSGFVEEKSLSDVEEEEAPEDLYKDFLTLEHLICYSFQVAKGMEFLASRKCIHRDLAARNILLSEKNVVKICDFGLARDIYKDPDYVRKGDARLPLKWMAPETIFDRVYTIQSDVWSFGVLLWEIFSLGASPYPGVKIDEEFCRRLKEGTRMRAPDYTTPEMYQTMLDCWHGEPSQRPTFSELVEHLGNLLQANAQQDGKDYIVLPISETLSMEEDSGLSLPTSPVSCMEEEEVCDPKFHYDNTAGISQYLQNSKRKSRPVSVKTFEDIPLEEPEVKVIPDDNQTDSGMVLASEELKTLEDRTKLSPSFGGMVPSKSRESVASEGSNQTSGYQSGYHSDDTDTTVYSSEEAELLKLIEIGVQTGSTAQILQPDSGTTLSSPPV
Sequence of Hepatocyte nuclear factor 4-alpha (P41235 whole entry): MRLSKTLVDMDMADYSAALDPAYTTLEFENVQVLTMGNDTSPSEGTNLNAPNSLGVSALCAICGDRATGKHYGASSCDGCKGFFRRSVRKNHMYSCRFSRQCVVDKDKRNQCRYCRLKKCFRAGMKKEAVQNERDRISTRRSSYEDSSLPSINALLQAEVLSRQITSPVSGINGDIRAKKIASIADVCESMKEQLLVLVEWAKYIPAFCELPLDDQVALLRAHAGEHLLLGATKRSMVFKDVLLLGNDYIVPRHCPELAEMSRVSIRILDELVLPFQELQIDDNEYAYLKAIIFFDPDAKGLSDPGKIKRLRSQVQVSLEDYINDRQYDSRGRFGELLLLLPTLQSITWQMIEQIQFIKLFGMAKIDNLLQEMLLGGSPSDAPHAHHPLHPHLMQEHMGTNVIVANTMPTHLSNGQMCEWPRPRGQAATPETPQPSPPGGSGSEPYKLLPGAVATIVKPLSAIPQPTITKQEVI
Sequence of FAD-linked sulfhydryl oxidase ALR (P55789 whole entry): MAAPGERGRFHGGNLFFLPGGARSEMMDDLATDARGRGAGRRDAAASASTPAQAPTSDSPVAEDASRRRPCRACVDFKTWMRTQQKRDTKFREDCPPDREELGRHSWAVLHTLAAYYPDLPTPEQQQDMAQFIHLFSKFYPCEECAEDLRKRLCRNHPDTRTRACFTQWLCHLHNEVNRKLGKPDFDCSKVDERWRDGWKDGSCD
Sequence of Glucose-6-phosphate 1-dehydrogenase (P11413 whole entry): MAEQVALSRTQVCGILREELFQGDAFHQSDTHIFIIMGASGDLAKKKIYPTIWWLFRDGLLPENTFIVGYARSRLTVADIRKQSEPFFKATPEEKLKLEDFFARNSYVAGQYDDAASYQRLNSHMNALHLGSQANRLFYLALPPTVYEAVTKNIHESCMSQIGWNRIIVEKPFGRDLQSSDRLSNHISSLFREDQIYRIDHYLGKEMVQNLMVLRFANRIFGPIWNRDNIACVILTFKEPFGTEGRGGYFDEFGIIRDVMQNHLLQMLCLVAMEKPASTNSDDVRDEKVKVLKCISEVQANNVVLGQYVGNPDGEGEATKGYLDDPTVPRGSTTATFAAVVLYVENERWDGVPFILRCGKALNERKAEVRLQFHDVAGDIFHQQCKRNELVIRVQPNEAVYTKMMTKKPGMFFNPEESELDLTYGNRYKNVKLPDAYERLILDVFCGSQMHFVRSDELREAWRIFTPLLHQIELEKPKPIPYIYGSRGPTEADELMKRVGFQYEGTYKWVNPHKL
Sequence of Induced myeloid leukemia cell differentiation protein Mcl-1 (Q07820 whole entry): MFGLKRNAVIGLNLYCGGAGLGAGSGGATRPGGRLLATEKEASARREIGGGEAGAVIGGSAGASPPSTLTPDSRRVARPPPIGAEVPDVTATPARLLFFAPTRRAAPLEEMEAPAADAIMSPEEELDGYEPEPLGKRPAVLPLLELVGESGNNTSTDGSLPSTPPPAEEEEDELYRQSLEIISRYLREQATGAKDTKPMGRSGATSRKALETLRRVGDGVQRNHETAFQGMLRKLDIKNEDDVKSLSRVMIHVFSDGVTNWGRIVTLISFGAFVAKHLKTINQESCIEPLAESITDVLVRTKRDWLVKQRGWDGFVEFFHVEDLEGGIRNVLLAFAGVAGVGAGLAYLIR
Sequence of Beta Lactamase (Q932Y6 whole entry): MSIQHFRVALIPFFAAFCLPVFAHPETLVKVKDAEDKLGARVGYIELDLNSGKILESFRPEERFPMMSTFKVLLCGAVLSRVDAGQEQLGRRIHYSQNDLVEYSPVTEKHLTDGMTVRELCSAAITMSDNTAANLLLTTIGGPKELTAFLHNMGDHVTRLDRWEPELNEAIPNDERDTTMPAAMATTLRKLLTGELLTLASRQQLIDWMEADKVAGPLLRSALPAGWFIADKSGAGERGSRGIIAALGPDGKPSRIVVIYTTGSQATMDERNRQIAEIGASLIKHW
Sequence of Dual specificity protein phosphatase 3 (P51452 whole entry): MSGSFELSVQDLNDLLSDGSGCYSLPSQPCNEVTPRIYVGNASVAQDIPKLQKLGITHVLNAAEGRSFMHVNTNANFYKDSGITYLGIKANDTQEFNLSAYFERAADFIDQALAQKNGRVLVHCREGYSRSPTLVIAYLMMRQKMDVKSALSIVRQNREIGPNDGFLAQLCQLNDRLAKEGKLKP

For the compound `O=S(=O)(Nc1ccc(Cl)cc1)c1ccc(N2CCOCC2)c(NC(=S)NCCN2CCOCC2)c1`, the IC50 is > 80 µM (inactive) in assay [1], 1.1 µM (active) in [2], 8.03 µM (active) in assay [3] and 0.342 µM (active) in [4].

As for `Cc1ccc(-n2nc3c(N4CCC(C(=O)NCc5ccccc5C)CC4)nnc(C)c3c2C)cc1`, the CC50 in assay [5] was 27.8 µM (active). Moreover, the figures for the IC50 in assay [6] and in assay [7] were 8.76 µM (active) and 16.2 µM (inactive), respectively.

Usually AC50 stands for the concentration giving half of the maximal activity seen. For `COc1ccc(C(=O)Nc2cccc(NC(=O)c3cccs3)c2)cc1`, the AC50 in assay [8] is 4.26 µM (active).

In the case of `CCCCCCNc1cc2n(c(=O)n1)CCc1cc(OC)c(OC)cc1-2`, the half-maximal activity concentration (AC50) in [9] was 101 µM (active).

In the case of `COc1ccc(/C=C\C(=O)CC(O)(c2ccccc2)C(F)(F)F)cc1` (configuration not stated), the IC50 in assay [10] was 3.93 µM (active).

Usually EC50 stands for the concentration that produces a half-maximal response. For `N#Cc1ccccc1CSc1ccc(-c2nc3ccccc3[nH]2)cn1`, the EC50 in assay [11] was > 79.4 µM (inactive); in assay [12], > 79.4 µM (not active); in assay [13], > 79.4 µM (not active). Further, in assay [14], the IC50 was 26.5 µM (inactive).

Regarding `Fc1ccccc1N=C(S)Nc1cccc2cnccc12`, in [15], the CC50 was > 40 µM (active). Further, in [16], the AC50 is 5.56 µM (active). Further, the IC50 in assay [17] and in assay [18] was > 66 µM (inactive) throughout.

For `O=C(COC(=O)c1ccc(Cl)nc1)Nc1nnc(-c2ccccc2)o1`, the AC50 in assay [9] was 115 µM (active).

Turning to `CCn1c(=O)c(=O)n(CC)c2cc(S(=O)(=O)Nc3cc(C)ccc3C)ccc21`, the half-maximal activity concentration (AC50) in assay [8] was 13.6 µM (active).

In general, Ki refers to the dissociation constant of the complex between target and ligand, obtained from inhibition or displacement. For `COc1cccc(S(=O)(=O)Nc2ccc3c(c2)C(=NO)c2ccccc2-3)c1`, the inhibition constant (Ki) is > 2 µM (inactive) and 2 µM (active) in assay [19]; 3.98 µM (active) and 794 nM (active) in assay [20]; 6.31 nM (active) and 15.8 nM (active) in assay [21].

Consider `CC(C)(C)NC(=O)C(c1ccccc1F)n1c(=O)c(-c2ccco2)nc2ccccc21` (configuration not stated), for which, in assay [10], the IC50 was 1.85 µM (active).

For `C/C(=N\Nc1ccc(C(=O)O)cc1)c1ccc2c(c1)Nc1ccccc1S2`, the EC50 is 3.9 µM (active) in [22], > 150 µM (not active) in assay [23] and 7.08 µM (active) in assay [25]. Besides, the results for the IC50 in assay [24], in assay [28] and in assay [29] were 36 µM (active), 11.7 µM (active) and 6.48 µM (active), respectively. For the same compound, the AC50 was 0.013 µM (active) in [26] and 48.5 µM (active) in [27].
